Reference: US20090318399A1, “PHARMACEUTICAL COMPOSITION AND EXTRACT OF PORIA FOR TREATING A DISEASE INDUCED FROM IMMUNE DISORDER” (Sinphar Pharmaceutical Co., Ltd., priority 2008, published 2009)

Test system: immune cells in BALF of OVA-sensitized mice
Test: Percentage of subpopulation of immune cells in BALF
Assay type: in vivo, BALB/c mice
Conditions: Pred group: 0.1 mg Prednisolone per day for 5 days; % of total BALF cells; mean±SD
Excerpt: In this example the mice were induced to become allergic by using ovalbumin (OVA) as an allergen, and the mice were confirmed suffering the induced asthma from the appearance of OVE-specific IgE antibody in the mice. Mice in different groups were fed with a Poria extract or pure lanostane compound during the experimental period, and each mouse was subjected to an airway hyperresponsiveness test after one-month feeding, from which an important index reflecting the severe degree of the asthma of the mouse was determined. In this example different immune cells in bronchoalveolar lavage fluid (BALF) of the mice were also observed as to whether they particularly eosinophils and neutrophils were affected. Further, a chemoattractant factor, Eotaxin, was an important observation factor in this example for observing whether the secretion of cytokines changed dramatically.
(1) Experimental animal: Inbred BALB/c female mice were maintained by standard laboratory chow ad libitum. Room temperature was maintained at 19-24° C. and relative humidity at 50-70%. […]
As all groups of mice had finished of AHR analysis, they were sacrificed on next day. […] The total cell numbers were determined with 0.5 ml CM-10, wherein the density of cells was adjusted to 3×10^5 cells/ml. […] Two hundreds of leukocytes were counted on each slide, which includes four different cells, eosinophil, neutrophil, lymphocyte and monocyte. […]

C[C@]12C=CC(=O)C=C1CC[C@@H]1[C@@H]2[C@@H](O)C[C@@]2(C)[C@H]1CC[C@]2(O)C(=O)CO [Pred, Prednisolone]
Monocyte % in BALF: 13.3 ± 7.8% | Neutrophil % in BALF: 0.8 ± 0.8%
